US20210267977A1, “C[…] AFTER 5HT2A AGONISTS ADMINISTRATION” (Universitätsspital Basel, priority 2020, published 2021)
Where two headings read alike, the source gives them in different places.

Key:
[1] = tested on: healthy subjects; test: Example 2 clinical study: subjective drug effects (VAS, AMRS, 5D-ASC, MEQ), ketanserin before LSD; assay type: in vivo, human; conditions: 16 subjects
Experimental: The study was registered at ClinicalTrials.gov (NCT03321136).
100 μg LSD/100 μg LSD). […] Placebo consisted of identical opaque capsules filled with mannitol.
LSD or placebo was administered at 9:00 AM. The outcome measures were repeatedly assessed for 24 hours.
The VASs for “concentration”, and “perception of time” were bidirectional (±50%). Marked from “not at all” on the left (−50), to “normal” in the middle (0), to “extremely” on the right (+50) for concentration and “slowed” (−50) and “racing” (+50) for “perception of time”. […] Mystical experiences were assessed using the German version (Liechti et al., 2017) of the 100-item States of Consciousness Questionnaire (SOCQ) (Griffiths et al., 2006) that includes the 43-item and newer 30-item MEQ (MEQ43 (Griffiths et al., 2006) and MEQ30 (Barrett et al., 2015)). The 60-item Adjective Mood Rating Scale (AMRS) (Janke & Debus, 1978) was administered 1 hour before and 3, 6, 9, 12, and 24 hours after drug administration.
The criterion for significance was p<0.05.

[2] = tested on: healthy subjects; test: Example 2 clinical study: autonomic and adverse effects (blood pressure, heart rate, body temperature, List of Complaints); conditions: ketanserin 40 mg before 200 μg LSD
Excerpt: The washout periods between sessions were at least 10 days. The study was registered at ClinicalTrials.gov (NCT03321136).
Participants who were younger than 25 years old were excluded from participating in the study. Additional exclusion criteria were age >65 years, pregnancy (urine pregnancy test at screening and before each test session), personal or family (first-degree relative) history of major psychiatric disorders (assessed by the Semi-structured Clinical Interview for Diagnostic and Statistical Manual of Mental Disorders, 4th edition, Axis I disorders by a trained psychiatrist), the use of medications that may interfere with the study medications (e.g. antidepressants, antipsychotics, sedatives), chronic or acute physical illness (abnormal physical exam, electrocardiogram, or hematological and chemical blood analyses), tobacco smoking (>10 cigarettes/day), lifetime prevalence of illicit drug use >10 times (except for Δ^9-tetrahydrocannabinol), illicit drug use within the last 2 months, and illicit drug use during the study (determined by urine drug tests). […]
Ketanserin (40 mg) or placebo was administered at 8:00 AM. […] The outcome measures were repeatedly assessed for 24 hours.
Autonomic, adverse, and endocrine effects: Blood pressure, heart rate, and tympanic body temperature were repeatedly measured 1 hour before and 0, 0.5, 1, 1.5, 2.5, 3, 4, 5, 6, 7, 8, 9, 10, 11, 12, 14, 16, and 24 hours after drug administration as previously described in detail (Hysek et al., 2010). Adverse effects were systematically assessed 1 hour before and 12 and 24 hours after drug administration using the 66-item List of Complaints (Zerssen, 1976).
Data analysis: Peak (Emax and/or Emin) or peak change from baseline (ΔEmax) values were determined for repeated measures. The values were then analyzed using repeated-measures analysis of variance (ANOVA), with drug as within-subjects factor, followed by Tukey post hoc comparisons using Statistica 12 software (StatSoft, Tulsa, Okla., USA). […]

[3] = Example 2 clinical study: plasma LSD pharmacokinetics; conditions: ketanserin 40 mg before 200 μg LSD, one-compartment model
Experimental: The blood samples were immediately centrifuged, and the plasma was subsequently stored at −80° C. until analysis.

[4] = tested on: healthy subjects; test: Example 3 clinical study: subjective drug effects (VAS, 5D-ASC), ketanserin or placebo 1 hour after LSD; conditions: for duration of action of LSD: three subjects
Experimental: (§1) Study design: The study used a double-blind, placebo-controlled, random-order 2-period cross-over design with 2 treatment conditions: 1) 100 μg LSD+ketanserin (40 mg) and 2) 100 μg LSD+placebo. Ketanserin or placebo was administered 1 hour after LSD. The washout periods between sessions were at least 10 days. The study was registered at ClinicalTrials.gov (NCT04558294).
(§2) Participants: Healthy subjects (men and women) were recruited. Participants who were younger than 25 years old were excluded from participating in the study. Additional exclusion criteria were age >65 years, pregnancy (urine pregnancy test at screening and before each test session), personal or family (first-degree relative) history of major psychiatric disorders (assessed by the Semi-structured Clinical Interview for Diagnostic and Statistical Manual of Mental Disorders, 4th edition, Axis I disorders by a trained psychiatrist), the use of medications that may interfere with the study medications (e.g. antidepressants, antipsychotics, sedatives), chronic or acute physical illness (abnormal physical exam, electrocardiogram, or hematological and chemical blood analyses), tobacco smoking (>10 cigarettes/day), lifetime prevalence of illicit drug use >10 times (except for Δ^9-tetrahydrocannabinol), illicit drug use within the last 2 months, and illicit drug use during the study (determined by urine drug tests).
(§3) Study drugs: LSD (D-lysergic acid diethylamide base, high-performance liquid chromatography purity >99%; Lipomed AG, Arlesheim, Switzerland) was administered as an oral solution in units containing 100 μg LSD in 1 mL of 96% ethanol (Holze et al., 2019). Ketanserin was obtained as the marketed drug (KETENSIN® (Janssen)) and encapsulated with opaque capsules to ensure blinding. Ketanserin placebo consisted of identical opaque capsules filled with mannitol.
(§4) Study procedures: The study included a screening visit, two 13 hour test sessions (7:00 AM-8:00 PM), and an end-of-study visit. LSD was administered at 8:00 AM. Ketanserin (40 mg) or placebo was administered at 9:00 AM. The outcome measures were repeatedly assessed for 12 hours after LSD administration.
Subjective drug effects: Subjective effects were assessed repeatedly using visual analog scales (VASs) 0, 0.5, 1, 1.5, 2, 2.5, 3, 3.5, 4, 5, 6, 7, 8, 9, 10, 11, and 12 hours after LSD administration. The VASs were presented as 100-mm horizontal lines (0-100%), marked from “not at all” on the left to “extremely” on the right. The 5D-ASC scale (Dittrich, 1998; Studerus et al., 2010) was administered 12 hours after LSD administration to retrospectively rate alterations in waking consciousness induced by the drugs. Autonomic, adverse, and endocrine effects: Blood pressure, heart rate, and tympanic body temperature were repeatedly measured 1 hour before and 0, 0.5, 1, 1.5, 2.5, 3, 3.5, 4, 5, 6, 7, 8, 9, 10, 11, and 12 hours after LSD administration as previously described in detail (Hysek et al., 2010). Adverse effects were systematically assessed up to 12 hours after drug administration using the 66-item List of Complaints (Zerssen, 1976).

[5] = tested on: healthy subjects; test: Example 3 clinical study: cardiovascular and adverse effects (List of Complaints); conditions: for total of reported complaints on the LC list (mean±SEM): up to 12 hours after LSD
Experimental: as §1, §2, §3, §4
Subjective drug effects: Subjective effects were assessed repeatedly using visual analog scales (VASs) 0, 0.5, 1, 1.5, 2, 2.5, 3, 3.5, 4, 5, 6, 7, 8, 9, 10, 11, and 12 hours after LSD administration. […] Autonomic, adverse, and endocrine effects: Blood pressure, heart rate, and tympanic body temperature were repeatedly measured 1 hour before and 0, 0.5, 1, 1.5, 2.5, 3, 3.5, 4, 5, 6, 7, 8, 9, 10, 11, and 12 hours after LSD administration as previously described in detail (Hysek et al., 2010). Adverse effects were systematically assessed up to 12 hours after drug administration using the 66-item List of Complaints (Zerssen, 1976).

[6] = target: T1, 5HT2A receptor (Homo sapiens, UniProt P28223); conditions: cited from earlier work
T1 construct: ketanserin (40 mg orally) 1 hour prior to the oral administration of LSD; host or cells: human subjects (in vivo, endogenous receptor)

[7] = tested on: humans; conditions: cited from earlier work
[8] = ketanserin 40 mg before 200 μg LSD, reduced to the level of 25 μg LSD
[9] = 100 μg LSD + ketanserin 40 mg 1 hour after
[10] = ketanserin 40 mg 1 hour after 100 μg LSD

T1 sequence (P28223 whole entry): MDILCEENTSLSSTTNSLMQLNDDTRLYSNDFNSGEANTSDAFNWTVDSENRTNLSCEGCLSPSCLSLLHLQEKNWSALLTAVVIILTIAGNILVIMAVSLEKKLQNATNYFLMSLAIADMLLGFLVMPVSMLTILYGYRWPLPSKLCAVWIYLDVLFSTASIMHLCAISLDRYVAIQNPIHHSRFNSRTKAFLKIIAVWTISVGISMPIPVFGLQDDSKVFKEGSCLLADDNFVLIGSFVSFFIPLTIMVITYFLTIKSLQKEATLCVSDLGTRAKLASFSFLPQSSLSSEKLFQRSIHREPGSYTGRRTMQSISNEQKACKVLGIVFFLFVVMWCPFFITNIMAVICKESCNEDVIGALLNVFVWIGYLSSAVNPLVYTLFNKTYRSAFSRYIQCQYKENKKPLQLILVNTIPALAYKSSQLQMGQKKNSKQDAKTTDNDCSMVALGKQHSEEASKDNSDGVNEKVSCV

O=C(c1ccc(F)cc1)C1CCN(CCn2c(=O)[nH]c3ccccc3c2=O)CC1 [ketanserin]
LSD response on the AMRS ([1]; ketanserin 40 mg 1 hour before 200 μg LSD): significantly prevented anxiety, introversion and emotional excitation | overall subjective response to high-dose LSD ([1]; ketanserin 40 mg 1 hour before 200 μg LSD, most P<0.001): reduced the subjective response to high-dose LSD approximately to the level of the 25 μg LSD dose | subjective effects on the 5D-ASC Scale [1, 8]: significantly and markedly reduced | subjective effects on the MEQ and subscales 'Nadir' and 'Aesthetic experience' (SOCQ) [1, 8]: significantly and markedly reduced | acute adverse effects of 200 μg LSD (List of Complaints) [2]: significantly prevented | LSD response on blood pressure ([2]; 16 subjects): transiently reduced the LSD response on blood pressure only up to 6 hours | LSD-induced heart rate response ([2]; 16 subjects): significantly prevented | effect on the PK of 200 μg LSD [3]: only minimally altered | total 3D-OAV score [4, 9]: 24% | duration of action of LSD [4, 9]: 4 h | set-in of the ketanserin effect on the subjective response to LSD, time after ketanserin administration [4, 10]: 1 h | time to blockade of the LSD-typical effects [4, 10]: within two hours | typical mind altering effects of LSD on VAS (any drug effect, good drug effect, visual, auditory, synaesthetic, sense of time, ego-dissolution) [4, 10]: very effectively reduced | reduction of the duration of action of LSD ([4]; ketanserin 40 mg 1 hour after 100 μg LSD vs placebo): approximately 60% | recurrence of the LSD effect ([4]; ketanserin 40 mg 1 hour after 100 μg LSD, 12 hours observation): no recurrence of the LSD effect | nausea induced by LSD (VAS) ([4]; ketanserin 40 mg 1 hour after 100 μg LSD, more data needed): tended to reduce nausea | acute subjective psychedelic response to LSD ([4]; ketanserin 40 mg 1 hour after LSD base 100 μg): markedly shortened and also attenuated | feelings of tiredness (VAS) ([4]; ketanserin 40 mg added to 100 μg LSD compared with placebo): increased feelings of tiredness | subjective feelings of stimulation (VAS) ([4]; ketanserin 40 mg after 100 μg LSD compared with LSD alone): increased subjective feelings of stimulation | subjective effects of LSD on the 5D-ASC Scale ([4]; ketanserin 40 mg after 100 μg LSD in comparison with placebo): reduced the subjective effects of LSD | reduction of the total 3D-OAV score ([4]; ketanserin 40 mg after 100 μg LSD vs placebo): approximately 30% | total of reported complaints on the LC list (mean±SEM) ([5]; 100 μg LSD + ketanserin 40 mg): 8.3±4 | cardiovascular effects of LSD (blood pressure, heart rate, body temperature) ([5]; ketanserin 40 mg 1 hour after 100 μg LSD compared with placebo): no relevant effects on the cardiovascular effects of LSD | diastolic blood pressure ([5]; ketanserin 40 mg 1 hour after 100 μg LSD, needing further study): transient decrease in diastolic blood pressure | effect on the LSD experience ([6]; ketanserin 40 mg orally 1 hour prior to LSD 200 μg, Liechti): similarly prevented the LSD experience | effect on the LSD experience ([6]; ketanserin 40 mg orally 1 hour prior to oral LSD 70-100 μg, Preller et al., 2017): prevent the LSD experience almost completely

CCN(CC)C(=O)[C@@H]1C=C2c3cccc4[nH]cc(c34)C[C@H]2N(C)C1 [LSD, Lysergic acid diethylamide]
total 3D-OAV score ([4]; 100 μg LSD + placebo): 34% | duration of action of LSD ([4]; 100 μg LSD + placebo 1 hour after): 10 h | total of reported complaints on the LC list (mean±SEM) ([5]; 100 μg LSD + placebo): 7±3.6 | duration of subjective effects (mean±SD) ([7]; 100 μg LSD, Holze et al., 2019, range: 5.3-12.8 hour): 8.5 ± 2.0 h | duration of LSD effects ([7]; 100 μg dose, Dolder et al., 2017, range: 5-14 hours): 8.2 ± 2.1 h | duration of LSD effects ([7]; 200 μg dose, Dolder et al., 2017, range: 7-19.5 hours): 11.6 ± 1.7 h
